Data reported in PMC6625846 (ACS infectious diseases, 2019).

Legend:
[1] = target: T1, recombinant H. influenzae IgA1P (variant A1) (Haemophilus influenzae, UniProt P44969); type: biochemical; details: up to 100 μM
[2] = target: T1, recombinant H. influenzae IgA1P (variant A1); experiment: biochemical

Compound | Inhibition of recombinant H. influenzae IgA1P [1] | IC50 [2] [nM]
NCCc1ccc(S(=O)(=O)F)cc1 [Pefablock] | did not inhibit | –
O=c1oc(Cl)c(Cl)c2ccccc12 [DCIC, 3,4-dichloroisocoumarin] | – | 6 ± 1
Oc1nsnc1N1CCOCC1 [Compound 1a, 4-morpholin-4-yl-1,2,5-thiadiazol-3-ol] | – | > 100000
O=S(=O)(F)Cc1ccccc1 [PMSF] | did not inhibit | –
